According to patent publication US7846937B2, “Cyclopropanecarboxylate esters of acyclovir” (Eli Lilly and Company, priority 2005, dated 2010):
Where two headings read alike, the source gives them in different places.

Experiment: Hydrolytic stability in buffered aqueous solutions (HPLC)
Format: physicochemical
Settings: 40° C., read-out: t1/2 (hr) at 40° C. (converted)
Experimental: Hydrolytic stability of valacyclovir and 1-amino-cyclopropanecarboxylic acid 2-(2-amino-6-oxo-1,6-dihydro-purin-9-ylmethoxy)-ethyl ester trifluoroacetic acid salt
Test samples of valacyclovir and 1-amino-cyclopropanecarboxylic acid 2-(2-amino-6-oxo-1,6-dihydro-purin-9-ylmethoxy)-ethyl ester trifluoroacetic acid salt (Example 1) are dissolved in buffered solutions of known pH at a concentration of 100 mcg/mL. Compound samples are prepared in 0.1 N hydrochloric acid for pH 1 and phosphate based buffer for pH2, 4, 6, 8 and 10. Stability is conveniently assessed using a semi-automated HPLC technique. Compound samples are loaded onto an HPLC autosampler incubated at 40° C. Samples are repeatedly injected on the HPLC at specific time intervals. The peak area of the compound samples are monitored by UV detection.
The HPLC system consisted of an Agilent® 1100 autoinjector, pump, degasser and LV detector. A Waters® Atlantis dC-18 column (3 micron, 150×4.6 mm I.D.) is used to separate the degradation products from the compound sample. An isocratic reversed-phase system using ultraviolet detection is used to monitor the peak areas of the compound sample over a 24 hour period. The mobile phase composition is 5% acetonitrile and 95% water with 0.1% trifluoroacetic acid added to the mixture. The flow rate is 1.5 mL/min. The column temperature is 30 degrees Celsius and the injection volume was 10 μL. The UV detector is set at 256 nm and the run time was 9 minutes. Time points are analyzed every 2 hours for each buffer while being incubated at 40 degrees Celsius by the thermostat controlled autosampler.
The peak area of the compound sample is monitored over a 24 hour period at 2 hour intervals. The peak area of the compound sample is plotted versus time for each of the buffers tested. A first order calculation is used to determine the rate constant for each buffer based on the loss of peak area over time. The half-life, in hours, is calculated by dividing 0.693 by the rate constant (k). t1/2 (hr)=0.693/k.

[1] = pH = 1, 0.1 N hydrochloric acid
[2] = pH = 10, phosphate based buffer

Row | Compound | half-life at 100 mcg/mL [1] [h] | half-life at 100 mcg/mL (pH = 2, phosphate based buffer) [h] | half-life at 100 mcg/mL (pH = 4, phosphate based buffer) [h] | half-life at 100 mcg/mL (pH = 6, phosphate based buffer) [h] | half-life at 100 mcg/mL (pH = 8, phosphate based buffer) [h] | half-life at 100 mcg/mL [2] [h]
1 | CC(C)[C@H](N)C(=O)OCCOCn1cnc2c(=O)[nH]c(N)nc21 [valacyclovir, 2(2-amino-1,6-didydro-6-oxo-9H(purin-9-yl)methoxy)ethyl L-valinate] | > 300 | > 300 | > 300 | 69.7 | 7.8 | 6.8
2 | Nc1nc2c(ncn2COCCOC(=O)C2(N)CC2)c(=O)[nH]1.O=C(O)C(F)(F)F [Example 1, 1-amino-cyclopropanecarboxylic acid 2-(2-amino-6-oxo-1,6-dihydro-purin-9-ylmethoxy)-ethyl ester trifluoroacetic acid salt] | > 300 | > 300 | > 300 | > 300 | 90.1 | 23.8
